The source of these data is patent US11980616B2, “Treating liver disease by selectively eliminating senescent cells” (Buck Institute for Research on Aging, priority 2014, dated 2024).

Data set [1] concerns senescent foreskin fibroblasts (Sen(IR)HCA2). The data set can be described thus: Cell count survival assay, irradiation-induced senescent HCA2. The format is cell-based. The note with it: 0, 2.5, 10 μM for 9 days. The procedure:
(§1) Foreskin fibroblast cell lines HCA2 and BJ, lung fibroblast cell line IMR90, and mouse embryonic fibroblasts were seeded in six-well plates and induced to senesce with 10 Gy of ionizing radiation (IR) or a 24 hr treatment with doxorubicin (Doxo). Senescent phenotype was allowed to develop for at least 7 days, at which point a cell count was made to determine the baseline number of cells. Nutlin-3a treatment was then initiated for a period of at least 9 days. Media alone or media with drug as appropriate was refreshed at least every three days. At the end of the assay time period, cells are counted. Each condition was seeded in three plate wells and counted independently. Initial cell count serves as a control to determine the induction of senescence, as compared to the last day count without nutlin treatment. Initial non-senescent cell count serves as a proxy to determine Nutlin-3a toxicity.
(§2) Foreskin fibroblast cell lines HCA2 and BJ, lung fibroblast cell line IMR90, and mouse embryonic fibroblasts were exposed to 10 Gy of ionizing radiation (IR) to induce senescence. […] Percent survival was calculated as [cell count on day 9 of Nutlin-3a treatment/initial cell count on first day of Nutlin-3a treatment].

Data set [2] has as its system senescent foreskin fibroblasts (Sen(IR)BJ). The data set can be described thus: Cell count survival assay, irradiation-induced senescent BJ. The format is cell-based. The note with it: 0, 2.5, 10 μM for 9 days. On the procedure: as §1, §2
Data set [3] deals with doxorubicin-treated (Doxo) senescent aortic endothelial cells (Endo Aort). Briefly: Cell count survival assay, doxorubicin-induced senescent aortic endothelial cells. The format is cell-based. To be noted: Sen(Doxo) aortic endothelial cells; 11 days. On the procedure: as §1
Foreskin fibroblasts (HCA2) and aortic endothelial cells (Endo Aort) were treated with doxorubicin (250 nM) for one day (24 hours) to induce senescence (see FIG. 1). Eight days following doxorubicin treatment, Nutlin-3a treatment was initiated. HCA2 cells were exposed to Nutlin-3a for 9 days, and aortic endothelial cells were exposed to Nutlin-3a for 11 days. […] Percent survival was calculated as [cell count on the last day of Nutlin-3a treatment/initial cell count on first day of Nutlin-3a treatment].

The subject of data set [4] is non-senescent mouse embryonic fibroblasts (Non Sen MEFs). The data set can be described thus: Cell count toxicity assay, non-senescent MEF. The note with it: 0, 2.5, 10 μM, 9 days. The format is cell-based. The procedure:
as §1
Non-senescent foreskin fibroblasts (HCA2), lung fibroblasts (IMR90), and mouse embryonic fibroblasts (MEF) were treated with varying concentrations (0, 2.5 μM, and 10 μM) of Nutlin-3a for a period of 9 days to assess Nutlin-3a toxicity. Cell counts were taken at the start (NS start) and end of Nutlin-3a treatment. The difference between counts of cells not treated with Nutlin-3a on day 9 (NS 0) and cell counts determined at day zero (NS start) reflects the cell growth over the indicated time period. […]

In data set [5] the test system is non-senescent pre-adipocytes (Non Sen Pread). The data set can be described thus: Cell count toxicity assay, non-senescent pre-adipocytes. The format is cell-based. To be noted: 0, 2.5, 10 μM, 11 days. The procedure: Non-senescent aortic endothelial (Endo Aort) cells and pre-adipocytes (Pread) were also treated with varying concentrations (0, 2.5 μM, and 10 μM) of Nutlin-3a for a period of 11 days to assess Nutlin-3a toxicity, as described above. Cell counts were taken at the start at Day 0 (NS start) and at the end of Nutlin-3a treatment (NS 0). The difference between counts of cells not treated with Nutlin-3a on day 11 (NS 0) and cell counts from NS start reflects the cell growth over the indicated time period. […] Decrease in apparent survival between NS 0 and NS 2.5 and between NS 0 and NS 10 reflects a decrease in cell growth.

Data set [6] concerns IL-6 secretion by senescent IMR90 cells. The data set can be described thus: IL-6 secretion ELISA in irradiated senescent IMR90 cells. The format is cell-based, human. The note with it: 10 μM for nine days, then six days without drug; ELISA normalized to cell number. On the procedure:
In another experiment, IMR90 cells were induced to senesce by irradiation (10 Gy). Seven days after irradiation, cells were treated with 10 μM Nutlin-3a or vehicle (DMSO) for nine days (Day 9). The drug or vehicle was refreshed every three days. Drug/vehicle was removed at Day 9 and the cells were cultured for an additional six days. Conditioned media from the treated cells was collected, and IL-6 measurement by ELISA was performed (Perkin Elmer, AL223F). IL-6 levels in culture media were determined by ELISA using a kit according to manufacturer's instructions (AL223F, Perkin Elmer). Cells were fixed with 4% paraformaldehyde and stained by immunofluorescence with a specific anti-IL-6 antibody (R&D, AF-206-NA). The IL-6 level determined by ELISA was normalized to the number of cells in each well. The data are presented in FIG. 22C as a relative level of IL-6 in the treated cells compared to the level in non-senescent cells (NS). The data are presented as an average of three different cell samples.
For orientation: ELISA stands for enzyme-linked immunosorbent assay.

Data set [7] relates to senescence markers and SASP factors in senescent IMR90 cells. The data set can be described thus: qPCR of senescence markers and SASP factors in irradiated senescent IMR90 cells. Type of data set: cell-based, human. The procedure:
Primary human fibroblast (IMR90) cells were induced to senesce by applying 10 Gy of irradiation. Seven days after irradiation (Day 0), cells were treated with 10 μM Nutlin-3a or vehicle (DMSO) for nine days (Day 9). The drug or vehicle was refreshed every three days. Drug/vehicle was removed at Day 9 and the cells were cultured for an additional three days (Day 12) in media without drug or DMSO. Cells were then collected, mRNA extracted, and cDNA prepared. Quantitative PCR (qPCR) was then performed to detect expression of various genes. Cells were also collected at Day 12 after drug/vehicle had been removed for three days. The data are presented as an average of three samples. Data were normalized to actin and depicted as a ratio to non-senescent cells.

Setting [8] is: 10 μM, drug present and after removal.
The mark [9] stands for this setting: Day 12, three days after drug removal.

As for `COc1ccc(C2=N[C@@H](c3ccc(Cl)cc3)[C@@H](c3ccc(Cl)cc3)N2C(=O)N2CCNC(=O)C2)c(OC(C)C)c1` [Nutlin-3a], the Percent survival entry in data set [1] is listed as “reduced cell survival”. In addition, the Percent survival entry in data set [2] is “reduced cell survival”. For the same molecule, the Percent survival result in data set [3] was “sensitive”. Besides, in data set [4], the “Proliferation (percent growth)” value is “reduces proliferation” and the “Toxicity (cell number vs starting level)” value was “non-toxic”. In data set [5], the “Proliferation (percent growth)” value was “reduces proliferation” and the “Toxicity (cell number vs starting level)” value is listed as “non-toxic”. Besides, in data set [6], the “IL-6 level, fold lower than DMSO treated cells” value is given as 5-9 fold. The “p21 level relative to non-senescent cells” value in data set [7] (10 μM, Day 9, qPCR normalized to actin) is listed as “approximately 90 fold”. The IL-1α level entry in data set [7] (10 μM, Day 9 and Day 12) is “decreased only after Nutlin-3a had been removed”. In data set [7] (setting [8]), the CXCL-1 level entry was “reduced”, the IL-6 level result was “reduced” and the IL-8 level entry was “reduced”. Moreover, in data set [7] (setting [9]), the p16 level result is “decrease” and the “p21 level vs DMSO treated cells” value is reported as “comparable”. Also, in data set [7] (in the presence of drug (Day 9)), the p16 level result is on record as “did not change”.
